Assay results from patent US9394284B2, “Compounds act at multiple prostaglandin receptors giving a general anti-inflammatory response” (Allergan, Inc., priority 2010, dated 2016).

How the values were obtained:
Assay type in all cases: cell-based
[1] = biological target: T1, human prostanoid EP2 receptor (Homo sapiens, UniProt P43116); experiment: FLIPR Ca2+ signaling antagonist assay, EP2 receptor stable cell line; conditions: HEK-293 EBNA stable cell line; standard agonist PGE2; NA = inactive (no antagonism or Kb 10,000 nM); PAg, Ag not defined
T1 construct: expressed in transfected cells
T1 sequence (P43116 whole entry): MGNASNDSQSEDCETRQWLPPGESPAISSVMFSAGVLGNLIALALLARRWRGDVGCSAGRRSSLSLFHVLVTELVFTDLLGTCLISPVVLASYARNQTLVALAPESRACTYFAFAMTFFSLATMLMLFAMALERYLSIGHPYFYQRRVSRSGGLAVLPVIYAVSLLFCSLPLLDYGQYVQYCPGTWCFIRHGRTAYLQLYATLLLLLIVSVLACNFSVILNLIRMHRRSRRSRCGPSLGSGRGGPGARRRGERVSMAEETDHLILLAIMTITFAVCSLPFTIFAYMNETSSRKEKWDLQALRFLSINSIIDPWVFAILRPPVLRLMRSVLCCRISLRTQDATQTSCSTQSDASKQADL
Protocol: The above compounds were tested for PG antagonist activity as follows using human recombinant prostanoid receptor (DP1, EP1-4, FP, IP and TP) stable cell lines:
In order to measure the response of Gs and Gi coupled prostanoid receptors as a Ca^2+ signal, chimeric G protein cDNAs were used. Stable cell lines over-expressing human prostanoid DP1, EP1-4, FP, IP, and TP receptors were established as follows:
Briefly, human prostanoid DP1, EP2, and EP4 receptor cDNAs were co-transfected with chimeric Gqs cDNA containing a haemagglutanin (HA) epitope; human prostanoid EP3 receptors were co-transfected with chimeric Gqi-HA; human EP1, FP, IP, and TP receptor cDNAs were expressed with no exogenous G-proteins. Gqs and Gqi chimeric cDNAs (Molecular Devices, Sunnyvale, Calif., U.S.A.), as well as cDNAs of prostanoid receptors, were cloned into a pCEP4 vector with a hygromycin B selection marker. Transfection into HEK-293 EBNA (Epstein-Barr virus nuclear antigen) cells was achieved by the FuGENE 6 transfection Reagent (Roche Applied Science, Indianapolis, Ind., USA). Stable transfectants were selected according to hygromycin resistance. Because Gqs and Gqi contained an HA epitope, G-protein expression was detected by Western blotting analysis using anti-mouse HA monoclonal antibody and horseradish peroxidase (HRP)-conjugated secondary antibody, while functional expression of prostanoid receptors was detected by FLIPR screening (Matias et al., 2004). These stable cell lines were validated using previously published antagonists at 10 μM against serial dilutions of standard agonists by FLIPR functional assays for Ca^2+ Signaling (as described below).
Ca^2+ signaling studies were performed using a FLIPR TETRA system (Molecular Devices, Sunnyvale, Calif., USA) in the 384-format. This is a high-throughput instrument for cell-based assays to monitor Ca^2+ signaling associated with GPCRs and ion channels. Cells were seeded at a density of 5×10^4 cells/well in BioCoat poly-D-lysine coated, black wall, clear bottom 384-well plates (BD Biosciences, Franklin lakes, NJ, USA) and allowed to attach overnight in an incubator at 37° C. The cells were then washed twice with HBSS-HEPES buffer (Hanks' balanced salt solution without bicarbonate and phenol red, 20 mM HEPES, pH 7.4) using an ELx405 Select CW Microplate Washer (BioTek, Winooski, Vt., USA). After 60 min of dye-loading in the dark using the Ca^2+-sensitive dye Fluo-4AM (Invitrogen, Carlsbad, Calif., USA), at a final concentration of 2×10^−6M, the plates were washed 4 times with HBSS-HEPES buffer to remove excess dye and leaving 50 μl of buffer in each well. The plates were then placed in the FLIPR TETRA instrument and allowed to equilibrate at 37° C. AGN-211377 was added in a 25 μl volume to each well to give final concentrations of 0.1 μM, 0.3 μM, 1 μM, 3 μM, 10 μM, and 30 μM; or 0.067 μM, 0.1 μM, 0.2 μM, 0.3 μM, 0.67 μM, and 1 μM for cells over-expressing TP receptors. After 4.5 minutes, a 7-point serial dilution of the standard agonist for the corresponding receptor, in a 25 μl volume was injected at the final concentrations from 10^−11M to 10^−5M in 10-fold serial dilution increments for cells expressing human recombinant DP1, EP1, EP2, EP3, EP4, FP, and IP receptors. The dose range for the standard agonist for human recombinant TP receptors was from 10^−12 M to 10^−6 M. HBSS-HEPES buffer was used as the negative control for the standard agonists. Cells were excited with LED (light emitting diode) excitation at 470-495 nm and emission was measured through an emission filter at 515-575 nm. Assay plates were read for 3.5 minutes using the FLIPR^TETRA. The peak increase in fluorescence intensity was recorded for each well. On each plate, negative controls, dose response of positive controls, and co-treatments of antagonist-agonist for each dose were in triplicates.
Standard agonists were as follows: DP=BW 245C, EP1-EP4=PGE2, FP=17-phenyl-PGF2α, IP=Cicaprost, and TP=U-46619. […]

[2] = biological target: T2, human prostanoid DP1 receptor (Homo sapiens, UniProt Q13258); experiment: FLIPR Ca2+ signaling antagonist assay, DP1 receptor stable cell line; conditions: HEK-293 EBNA stable cell line; standard agonist BW 245C; NA = inactive (no antagonism or Kb 10,000 nM); PAg, Ag not defined
T2 construct: expressed in transfected cells
T2 sequence (Q13258 1-359): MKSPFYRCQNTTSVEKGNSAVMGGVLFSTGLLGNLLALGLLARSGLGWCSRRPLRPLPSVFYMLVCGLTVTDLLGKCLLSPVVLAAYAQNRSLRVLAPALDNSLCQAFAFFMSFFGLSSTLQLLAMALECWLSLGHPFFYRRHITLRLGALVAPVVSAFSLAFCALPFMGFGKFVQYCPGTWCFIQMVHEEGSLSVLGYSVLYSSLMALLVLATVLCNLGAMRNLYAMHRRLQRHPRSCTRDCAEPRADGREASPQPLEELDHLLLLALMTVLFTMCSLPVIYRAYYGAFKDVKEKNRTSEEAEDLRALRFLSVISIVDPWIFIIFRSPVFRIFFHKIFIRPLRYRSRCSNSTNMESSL
Method in brief: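 Functional antagonism measured by Ca2+ flux at 37 °C. Agonist ranges were 10^−11 to 10^−5 M, or 10^−12 to 10^−6 M for TP with U-46619; PGE2 for EP1/EP3, BW 245C for DP1. Compound spanned 0.1–30 μM except TP, 0.067–1 μM.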

[3] = biological target: T3, human prostanoid EP4 receptor (Homo sapiens, UniProt P35408); experiment: FLIPR Ca2+ signaling antagonist assay, EP4 receptor stable cell line; conditions: HEK-293 EBNA stable cell line; standard agonist PGE2; NA = inactive (no antagonism or Kb 10,000 nM); PAg, Ag not defined
T3 construct: expressed in transfected cells
T3 sequence (P35408 whole entry): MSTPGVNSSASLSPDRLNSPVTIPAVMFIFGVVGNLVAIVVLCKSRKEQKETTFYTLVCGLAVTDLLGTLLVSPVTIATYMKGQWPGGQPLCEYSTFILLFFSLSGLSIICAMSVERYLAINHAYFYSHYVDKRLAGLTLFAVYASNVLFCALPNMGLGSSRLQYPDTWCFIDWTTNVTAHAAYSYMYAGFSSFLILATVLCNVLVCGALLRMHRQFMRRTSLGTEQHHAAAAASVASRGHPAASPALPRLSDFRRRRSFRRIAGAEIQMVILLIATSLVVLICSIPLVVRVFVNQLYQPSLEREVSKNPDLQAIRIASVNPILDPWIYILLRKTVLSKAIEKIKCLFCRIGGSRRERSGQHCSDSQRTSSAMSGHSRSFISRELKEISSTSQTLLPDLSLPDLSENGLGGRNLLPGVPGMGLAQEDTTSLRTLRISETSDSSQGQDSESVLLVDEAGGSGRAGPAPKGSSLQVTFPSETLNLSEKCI
Method in brief: (§1)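 Peak Fluo-4 fluorescence (ex 470–495, em 515–575 nm) was read for 3.5 min on FLIPR after agonist injection and expressed relative to 10^−6 M standard agonist. Cells were HEK-293 EBNA transfectants. Test compound was added 4.5 min beforehand at 0.1–30 μM, or 0.067–1 μM for TP.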

[4] = biological target: T4, human prostanoid FP receptor (Homo sapiens, UniProt P43088); experiment: FLIPR Ca2+ signaling antagonist assay, FP receptor stable cell line; conditions: HEK-293 EBNA stable cell line; standard agonist 17-phenyl-PGF2α; NA = inactive (no antagonism or Kb 10,000 nM); PAg, Ag not defined
T4 construct: expressed in transfected cells
T4 sequence (P43088 whole entry): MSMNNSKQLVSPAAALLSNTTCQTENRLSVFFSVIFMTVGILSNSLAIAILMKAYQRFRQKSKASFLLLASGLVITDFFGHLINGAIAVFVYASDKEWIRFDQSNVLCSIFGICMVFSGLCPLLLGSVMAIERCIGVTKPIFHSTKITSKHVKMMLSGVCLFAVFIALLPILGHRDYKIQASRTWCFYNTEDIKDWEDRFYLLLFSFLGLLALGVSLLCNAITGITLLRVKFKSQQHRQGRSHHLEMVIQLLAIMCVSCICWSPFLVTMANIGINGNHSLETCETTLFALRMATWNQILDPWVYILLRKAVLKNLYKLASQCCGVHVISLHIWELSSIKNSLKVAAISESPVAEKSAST
Method in brief: as §1

[5] = biological target: T5, human prostanoid TP receptor (Homo sapiens, UniProt P21731); experiment: FLIPR Ca2+ signaling antagonist assay, TP receptor stable cell line; conditions: HEK-293 EBNA stable cell line; standard agonist U-46619; NA = inactive (no antagonism or Kb 10,000 nM); PAg, Ag not defined
T5 construct: expressed in transfected cells
T5 sequence (P21731 1-343): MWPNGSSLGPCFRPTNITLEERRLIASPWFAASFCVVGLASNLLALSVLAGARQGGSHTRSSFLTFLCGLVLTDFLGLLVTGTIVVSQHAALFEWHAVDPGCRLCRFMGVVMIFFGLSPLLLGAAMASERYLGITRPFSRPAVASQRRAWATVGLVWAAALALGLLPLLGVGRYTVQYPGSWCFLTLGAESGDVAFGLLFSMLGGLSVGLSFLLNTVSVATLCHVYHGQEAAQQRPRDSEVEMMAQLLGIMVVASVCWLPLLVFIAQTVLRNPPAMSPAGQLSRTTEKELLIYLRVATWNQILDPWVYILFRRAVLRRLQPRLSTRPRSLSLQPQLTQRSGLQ
Method in brief: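 HEK-293 EBNA cells stably expressed the receptor: DP1 with chimeric Gqs, EP3 with Gqi, and EP1 and TP without exogenous G protein. Fluo-4AM-loaded cells were preincubated 4.5 min at 37 °C with antagonist (0.1–30 μM; TP 0.067–1 μM) before agonist serial dilutions. Peak FLIPR fluorescence was normalised to the 10^−6 M agonist control.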

Row | SMILES | Kb [1] [nM] | Kb [2] [nM] | Kb [3] [nM] | Kb [4] [nM] | Kb [5] [nM] | DP1 (FLIPR) Kb [2] | EP2 (FLIPR) Kb [1] | TP (FLIPR) Kb [5]
1 | CCC(CC)COc1ccc(Cl)cc1Cn1nc(CC(C)C(=O)O)cc1C (racemic) [Example 68, 3-{1-[5-Chloro-2-(2-ethyl-butoxy)-benzyl]-5-methyl-1H-pyrazol-3-yl}-2-methyl-propionic acid] | 45 | 260 | 130 | 400 | 16 | – | – | –
2 | Cc1cc(CCC(=O)NS(=O)(=O)c2ccccc2)nn1Cc1cc(Cl)ccc1OCc1ccc(Cl)cc1 [Example 24, N-(3-[1-(5-Chloro-2-(4-chlorobenzyloxy)benzyl)-5-methyl-1H-pyrazol-3-yl]-propionyl)benzenesulfonamide] | 5500 | 800 | 900 | 800 | 30 | – | – | –
3 | Cc1cc(CCC(=O)O)nn1Cc1cc(Cl)ccc1OCC(C)(C)C [Example 35, 3-[1-(5-Chloro-2-(2,2-dimethylropoxy)benzyl)-5-methyl-1H-pyrazol-3-yl]-propionic acid] | 3200 | – | 500 | 110 | 20 | PAg | – | –
4 | Cc1cc(CCC(=O)O)nn1Cc1cc(Cl)ccc1OCCCC(C)C [Example 40, 3-[1-(5-Chloro-2-(4-methylpentyloxy)benzyl)-5-methyl-1H-pyrazol-3-yl]-propionic acid] | 1400 | – | 1700 | 360 | 40 | PAg | – | –
5 | Cc1cc(CCC(=O)NS(=O)(=O)C(F)(F)F)nn1Cc1cc(Cl)ccc1OCC1CCCC1 [Example 43, N-(3-[1-(5-Chloro-2-cyclopentylmethoxybenzyl)-5-methyl-1H-pyrazol-3-yl]-propionyl)C,C,C-trifluoromethanesulfon amide] | – | – | 80 | 400 | 2 | PAg | PAg | –
6 | Cc1cc(CCC(=O)O)nn1Cc1cc(OC(F)(F)F)ccc1OCC1CCCC1 [Example 50, 3-[1-(2-Cyclopentylmethoxy-5-trifluoromethoxy-benzyl)-5-methyl-1H-pyrazol-3-yl]-propionic acid] | 4500 | – | 200 | 90 | 20 | Ag | – | –
7 | Cc1cc(CCC(=O)O)nn1Cc1cc(OC(F)(F)F)ccc1OCc1ccc(Cl)cc1 [Example 51, 3-[1-[2-(4-Chloro-benzyloxy)-5-trifluoromethoxy-benzyl]-5-methyl-1H-pyrazol-3-yl]-propionic acid] | 500 | 600 | 7000 | 20 | – | – | – | Ag
8 | Cc1cc(CCC(=O)O)nn1Cc1cc(C(F)(F)F)ccc1OCc1ccc(Cl)cc1 [Example 52, 3-[1-[2-(4-Chloro-benzyloxy)-5-trifluoromethyl-benzyl]-5-methyl-1H-pyrazol-3-yl]-propionic acid] | 2200 | 100 | 1500 | 30 | – | – | – | PAg
